Biological target: Cdk4/CyclinD1 (Homo sapiens (Human), UniProt P11802)
Experiment: Cdk4 kinase inhibition assay with recombinant Cdk4/CyclinD1, Rb substrate, [33P]-ATP filter plate
Format: biochemical
Conditions: 25 μM ATP, read-out: Cdk 4 IC50
Description: The Cdk4 and Cdk6 inhibitory activity of the compounds is measured with a kinase inhibition assay using recombinant Cdk4/CyclinD1 or Cdk6/CyclinD3 protein complexes. The protein substrate used in the assay is the retinoblastoma protein (Rb). The kinase reactions are carried out in a 96-well filter plate (MSDV N6B50, Millipore). […] The mixture is incubated at room temperature for 1 hour and the proteins precipitated with an equal volume of 20% TCA. The plates are washed with 10% TCA according to the manufacturer's instruction and dried at room temperature. The amount of the phosphorylated Rb is determined with a TopCount (PerkinElmer). The IC50 of a compound is determined by nonlinear regression curve fitting using software program Prism 5 (GraphPad Software).

Sequence of Cdk4/CyclinD1 (P11802 whole entry): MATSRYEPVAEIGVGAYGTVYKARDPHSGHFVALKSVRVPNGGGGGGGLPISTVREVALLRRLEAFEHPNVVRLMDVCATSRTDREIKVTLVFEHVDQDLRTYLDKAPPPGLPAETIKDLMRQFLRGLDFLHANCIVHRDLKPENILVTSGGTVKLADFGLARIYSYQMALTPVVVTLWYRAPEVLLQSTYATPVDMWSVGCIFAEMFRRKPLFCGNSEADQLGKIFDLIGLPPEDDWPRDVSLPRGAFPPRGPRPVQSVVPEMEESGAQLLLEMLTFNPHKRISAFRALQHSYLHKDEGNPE
Sequence of Cdk4/CyclinD1 (P24385 whole entry partner): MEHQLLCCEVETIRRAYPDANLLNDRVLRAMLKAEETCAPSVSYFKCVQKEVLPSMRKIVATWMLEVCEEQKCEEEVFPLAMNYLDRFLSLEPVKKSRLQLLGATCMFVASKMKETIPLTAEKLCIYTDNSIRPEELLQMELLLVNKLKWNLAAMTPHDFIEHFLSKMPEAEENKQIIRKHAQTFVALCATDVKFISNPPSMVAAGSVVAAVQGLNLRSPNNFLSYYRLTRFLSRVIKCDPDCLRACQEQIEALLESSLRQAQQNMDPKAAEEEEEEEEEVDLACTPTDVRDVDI

SMILES	IC50 [nM]
Cc1nc(Nc2ncc3c4ccnc(F)c4n(C4CCCC4)c3n2)ccc1N1CCNCC1 [Example 171, 9-Cyclopentyl-8-fluoro-N-(6-methyl-5-(1-piperazinyl)-2-pyridinyl)-9H-pyrido[4′,3′:4,5]pyrrolo[2,3-d]pyrimidin-2-amine]	19
OCCN1CCN(c2ccc(Nc3ncc4c5ccncc5n(C5CCCC5)c4n3)nc2)CC1 [Example 191, 2-(4-(6-((9-Cyclopentyl-9H-pyrido[4′,3′:4,5]pyrrolo[2,3-d]pyrimidin-2-yl)amino)-3-pyridinyl)-1-piperazinyl)ethanol]	4.4
CN(C)CC(=O)N1CCN(c2ccc(Nc3ncc4c5ccnc(F)c5n(C5CCCC5)c4n3)nc2)CC1 [Example 193, 9-Cyclopentyl-N-(5-(4-((dimethylamino)acetyl)-1-piperazinyl)-2-pyridinyl)-8-fluoro-9H-pyrido[4′,3′:4,5]pyrrolo[2,3-d]pyrimidin-2-amine]	68
CC(=O)OCC(=O)N1CCN(c2ccc(Nc3ncc4c5ccnc(F)c5n(C5CCCC5)c4n3)nc2)CC1 [Example 194, 2-(4-(6-((9-cyclopentyl-8-fluoro-9H-pyrido[4′,3′:4,5]pyrrolo[2,3-d]pyrimidin-2-yl)amino)-3-pyridinyl)-1-piperazinyl)-2-oxoethyl acetate]	600
c1cc2c3cnc(Nc4ccc(N5CCC(N6CCCC6)CC5)cn4)nc3n(C3CCCC3)c2nn1 [Example 201, 9-cyclopentyl-N-(5-(4-(1-pyrrolidinyl)-1-piperidinyl)-2-pyridinyl)-9H-pyrimido[5′,4′:4,5]pyrrolo[2,3-c]pyridazin-7-amine]	26
CN(C)C1CCN(c2ccc(Nc3ncc4c5ccncc5n(C5CCC(C)(C)CC5)c4n3)cn2)CC1 [Example 205, N-(6-(4-(dimethylamino)-1-piperidinyl)-3-pyridinyl)-9-(4,4-dimethylcyclohexyl)-9H-pyrido[4′,3′:4,5]pyrrolo[2,3-d]pyrimidin-2-amine]	2.6
CC1(C)CCC(n2c3cnccc3c3cnc(Nc4ccc(N5CCC(N6CCCC6)CC5)cn4)nc32)CC1 [Example 206, 9-(4,4-dimethylcyclohexyl)-N-(5-(4-(1-pyrrolidinyl)-1-piperidinyl)-2-pyridinyl)-9H-pyrido[4′,3′:4,5]pyrrolo[2,3-d]pyrimidin-2-amine]	14
COc1nccc2c3cnc(Nc4ccc(N5CCNCC5)cn4)nc3n(C3CCC(C)(C)CC3)c12 [Example 207, 9-(4,4-dimethylcyclohexyl)-8-methoxy-N-(5-(1-piperazinyl)-2-pyridinyl)-9H-pyrido[4′,3′:4,5]pyrrolo[2,3-d]pyrimidin-2-amine]	10
CC1(C)CCC(n2c3nc(Nc4ccc(N5CCNCC5)cn4)ncc3c3ccnc(O)c32)CC1 [Example 208, 9-(4,4-dimethylcyclohexyl)-2-((5-(1-piperazinyl)-2-pyridinyl)amino)-9H-pyrido[4′,3′:4,5]pyrrolo[2,3-d]pyrimidin-8-ol]	1.8
COc1nccc2c3cnc(Nc4ccc(N5CCC(N6CCCC6)CC5)cn4)nc3n(C3CCC(C)(C)CC3)c12 [Example 209, 9-(4,4-dimethylcyclohexyl)-8-methoxy-N-(5-(4-(1-pyrrolidinyl)-1-piperidinyl)-2-pyridinyl)-9H-pyrido[4′,3′:4,5]pyrrolo[2,3-d]pyrimidin-2-amine]	11
CC1(C)CCC(n2c3nc(Nc4ccc(N5CCC(N6CCCC6)CC5)cn4)ncc3c3ccnc(O)c32)CC1 [Example 210, 9-(4,4-dimethylcyclohexyl)-2-((5-(4-(1-pyrrolidinyl)-1-piperidinyl)-2-pyridinyl)amino)-9H-pyrido[4′,3′:4,5]pyrrolo[2,3-d]pyrimidin-8-ol]	6.6
CN(C)C1CCN(c2ccc(Nc3ncc4c5ccnc(O)c5n(C5CCC(C)(C)CC5)c4n3)nn2)CC1 [Example 211, 2-((6-(4-(dimethylamino)-1-piperidinyl)-3-pyridazinyl)amino)-9-(4,4-dimethylcyclohexyl)-9H-pyrido[4′,3′:4,5]pyrrolo[2,3-d]pyrimidin-8-ol]	9.8
O=C(c1ccc(Nc2ncc3c4ccnc(O)c4n(C4CCCC4)c3n2)nc1)N1CCNCC1 [Example 223, 9-cyclopentyl-2-((5-(1-piperazinylcarbonyl)-2-pyridinyl)amino)-9H-pyrido[4′,3′:4,5]pyrrolo[2,3-d]pyrimidin-8-ol]	13
c1cc2c3cnc(Nc4ccc(N5CCC6(CCCN6)CC5)cn4)nc3n(C3CCCC3)c2cn1 [Example 231, 9-cyclopentyl-N-(5-(1,8-diazaspiro[45]dec-8-yl)-2-pyridinyl)-9H-pyrido[4′,3′:4,5]pyrrolo[2,3-d]pyrimidin-2-amine]	3.3

Now from value to compound:

IC50 [nM]	SMILES
2.5	OCCN1CCN(c2ccc(Nc3ncc4c5ccnc(F)c5n(C5CCCC5)c4n3)nc2)CC1 [Example 170, 2-(4-(6-((9-Cyclopentyl-8-fluoro-9H-pyrido[4′,3′:4,5]pyrrolo[2,3-d]pyrimidin-2-yl)amino)-3-pyridinyl)-1-piperazinyl)ethanol]
5.6	CC(C)(O)CN1CCN(c2ccc(Nc3ncc4c5ccnc(F)c5n(C5CCCC5)c4n3)nc2)CC1 [Example 172, 1-(4-(6-((9-Cyclopentyl-8-fluoro-9H-pyrido[4′,3′:4,5]pyrrolo[2,3-d]pyrimidin-2-yl)amino)-3-pyridinyl)-1-piperazinyl)-2-methyl-2-propanol]
56	N#CCC1CCN(c2ccc(Nc3ncc4c5ccnc(F)c5n(C5CCCC5)c4n3)nc2)CC1 [Example 173, (1-(6-((9-Cyclopentyl-8-fluoro-9H-pyrido[4′,3′:4,5]pyrrolo[2,3-d]pyrimidin-2-yl)amino)-3-pyridinyl)-4-piperidinyl)acetonitrile]
33	COC(=O)CC1CCN(c2ccc(Nc3ncc4c5ccnc(F)c5n(C5CCCC5)c4n3)nc2)CC1 [Example 174, Methyl (1-(6-((9-cyclopentyl-8-fluoro-9H-pyrido[4′,3′:4,5]pyrrolo[2,3-d]pyrimidin-2-yl)amino)-3-pyridinyl)-4-piperidinyl)acetate]
37	O=C(O)CC1CCN(c2ccc(Nc3ncc4c5ccnc(F)c5n(C5CCCC5)c4n3)nc2)CC1 [Example 175, (1-(6-((9-Cyclopentyl-8-fluoro-9H-pyrido[4′,3′:4,5]pyrrolo[2,3-d]pyrimidin-2-yl)amino)-3-pyridinyl)-4-piperidinyl)acetic acid]
930	NC(=O)CC1CCN(c2ccc(Nc3ncc4c5ccnc(F)c5n(C5CCCC5)c4n3)nc2)CC1 [Example 176, 2-(1-(6-((9-Cyclopentyl-8-fluoro-9H-pyrido[4′,3′:4,5]pyrrolo[2,3-d]pyrimidin-2-yl)amino)-3-pyridinyl)-4-piperidinyl)acetamide]
5	C[C@H]1CNCCN1c1ccc(Nc2ncc3c4ccnc(F)c4n(C4CCCC4)c3n2)nc1 [Example 177, 9-Cyclopentyl-8-fluoro-N-(5-((2S)-2-methyl-1-piperazinyl)-2-pyridinyl)-9H-pyrido[4′,3′:4,5]pyrrolo[2,3-d]pyrimidin-2-amine]
5	C[C@@H]1CN(c2ccc(Nc3ncc4c5ccnc(F)c5n(C5CCCC5)c4n3)nc2)CCN1 [Example 178, 9-Cyclopentyl-8-fluoro-N-(5-((3R)-3-methyl-1-piperazinyl)-2-pyridinyl)-9H-pyrido[4′,3′:4,5]pyrrolo[2,3-d]pyrimidin-2-amine]
3.4	C[C@H]1CN(c2ccc(Nc3ncc4c5ccnc(F)c5n(C5CCCC5)c4n3)nc2)CCN1 [Example 179, 9-cyclopentyl-8-fluoro-N-(5-((3S)-3-methyl-1-piperazinyl)-2-pyridinyl)-9H-pyrido-[4′,3′:4,5]pyrrolo[2,3-d]pyrimidin-2-amine]
2	C[C@@H]1CNCCN1c1ccc(Nc2ncc3c4ccnc(F)c4n(C4CCCC4)c3n2)nc1 [Example 180, 9-Cyclopentyl-8-fluoro-N-(5-((2R)-2-methyl-1-piperazinyl)-2-pyridinyl)-9H-pyrido[4′,3′:4,5]pyrrolo[2,3-d]pyrimidin-2-amine]
13	CN(CCO)C1CCN(c2ccc(Nc3ncc4c5ccnc(F)c5n(C5CCCC5)c4n3)nc2)CC1 [Example 195, 2-((1-(6-((9-Cyclopentyl-8-fluoro-9H-pyrido[4′,3′:4,5]pyrrolo[2,3-d]pyrimidin-2-yl)amino)-3-pyridinyl)-4-piperidinyl)(methyl)amino)ethanol]
2.4	OC[C@H]1CN(c2ccc(Nc3ncc4c5ccnc(F)c5n(C5CCCC5)c4n3)nc2)CCN1 [Example 196, ((2R)-4-(6-((9-Cyclopentyl-8-fluoro-9H-pyrido[4′,3′:4,5]pyrrolo[2,3-d]pyrimidin-2-yl)amino)-3-pyridinyl)-2-piperazinyl)methanol]
4.2	OC[C@H]1CN(c2ccc(Nc3ncc4c5ccncc5n(C5CCCC5)c4n3)nc2)CCN1 [Example 197, ((2R)-4-(6-((9-Cyclopentyl-9H-pyrido[4′,3′:4,5]pyrrolo[2,3-d]pyrimidin-2-yl)amino)-3-pyridinyl)-2-piperazinyl)methanol]
4.6	OC[C@@H]1CN(c2ccc(Nc3ncc4c5ccncc5n(C5CCCC5)c4n3)nc2)CCN1 [Example 198, ((2S)-4-(6-((9-cyclopentyl-9H-pyrido[4′,3′:4,5]pyrrolo[2,3-d]pyrimidin-2-yl)amino)-3-pyridinyl)-2-piperazinyl)methanol]
4.5	OC[C@@H]1CN(c2ccc(Nc3ncc4c5ccnc(F)c5n(C5CCCC5)c4n3)nc2)CCN1 [Example 199, ((2S)-4-(6-((9-cyclopentyl-8-fluoro-9H-pyrido[4′,3′:4,5]pyrrolo[2,3-d]pyrimidin-2-yl)amino)-3-pyridinyl)-2-piperazinyl)methanol]
6	O=C(c1ccc(Nc2ncc3c4ccnc(F)c4n(C4CCCC4)c3n2)nc1)N1CCNCC1 [Example 222, 9-cyclopentyl-8-fluoro-N-(5-(1-piperazinylcarbonyl)-2-pyridinyl)-9H-pyrido[4′,3′:4,5]pyrrolo[2,3-d]pyrimidin-2-amine]
